Experiments:
astrocytes = assay: LPS-stimulated ATP release by astrocytes; format: cell-based, rat; conditions: 5 or 50 μM, LPS stimulation, FIG. 15A
Protocol: (§1) Cortical microglia/astrocytes mechanically dissociated from decapitated postnatal P2-P4 rat pups (CD strain) were seeded on P75 flasks (1 brain per flask) and cultured at 37° C., 5% CO2 for 10-20 days using DMEM media supplemented with 10% FBS and 1% pen/strep. On Day 10, microglia were collected by gently shaking and washing and purify by passing through 20 μm cell strainer and centrifugation.
(§2) Re-suspended microglia were counted and plated onto poly-D-lysine coated 96-well culture plate at a density of 80,000 cells/well. Dislodged the remaining astrocytes (enriched astrocytes) and plated onto poly-D-lysine coated 96-well culture plate at a density of 50,000 cells/well. Overnighted microglia and/or astrocytes were treated with the PANX-1 blockers of the invention (5 or 50 μM), vehicle or control (carbenoxolone, CBX) and subjected to lipopolysaccharide stimulation. Extracellular ATP was assessed by multilabel plate reader Envision (ultrasensitive luminescence) using CellTiter-Glo (Promega) kit.

microglial cells = assay: LPS-stimulated ATP release by microglial cells; format: cell-based, rat; conditions: 5 or 50 μM, LPS stimulation, FIG. 15B
Protocol: as §1, §2

human PANX1 channels = biological target: T1, human PANX1 channels (Homo sapiens, UniProt Q96RD7); assay: Whole cell patch clamp assessment of PANX1 blockade on HEK293 cells stably expressing human PANX1 channels; format: cell-based; conditions: n=3
T1 construct: expressed in transfected cells; host or cells: HEK293
T1 sequence (Q96RD7 whole entry): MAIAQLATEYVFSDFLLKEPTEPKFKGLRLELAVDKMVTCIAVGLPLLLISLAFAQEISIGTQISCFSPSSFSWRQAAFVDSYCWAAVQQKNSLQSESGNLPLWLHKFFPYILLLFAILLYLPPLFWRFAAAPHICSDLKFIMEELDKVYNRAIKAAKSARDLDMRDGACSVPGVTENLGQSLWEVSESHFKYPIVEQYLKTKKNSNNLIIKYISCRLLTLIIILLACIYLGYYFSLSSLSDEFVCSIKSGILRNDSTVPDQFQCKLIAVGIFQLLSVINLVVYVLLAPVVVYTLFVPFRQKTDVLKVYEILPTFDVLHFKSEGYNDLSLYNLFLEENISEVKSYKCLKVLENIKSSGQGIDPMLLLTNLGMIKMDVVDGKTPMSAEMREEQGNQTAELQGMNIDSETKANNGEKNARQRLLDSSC
Protocol: The assessment of PANX1 blockade was assessed on HEK293 cells stably expressing human PANX1 channels, as previously described by Xu et al (2012). Briefly, wild type cells were seeded in six-well plates and 12-16 hours later, 60-70% confluent cells were transfected with the plasmid encoding hPANX1 using calcium phosphate. After 48 hours post-transfection, geneticin (G418), 0.8 mg/ml in fresh medium, was added to the cells to select for transfected clones and the medium was changed every other day. Once confluent, cells were transferred into flasks and maintained in medium containing G418 (0.8 mg/ml) for a total of 4 weeks from the transfection date.
To validate those cells as a tool to screen potential PANX1 inhibitors a number of known PANX1 inhibitors were assessed by whole cell patch clamp and the voltage/current diagrams compared to current literature. The pipette solution was 151 mM […], 10 mM HEPES, 10 mM EGTA, 3 mM MgCl2. Cells were maintained in normal extracellular solution (NES: 140 mM NaCl, 5 mM KCl, 2 mM CaCl2, 1 mM MgCl2, 10 mM D-glucose, 10 mM HEPES, pH 7.3). Voltage ramps of 1 s duration between −80 mV and +80 mV were applied at 5 s intervals. Opening of Panx1 channel was induced by hypotonic shock, by replacing the isotonic extracellular solution (310 mOsml/l) with hypotonic extracellular solution (198 mOsml/l).

Tg mice = conditions: AD model, acute inhibition; cited from earlier work
[1] = system: human cortical brain tissue slices; conditions: cited from earlier work
mice [2] = conditions: administered before naloxone; cited from earlier work
mice [3] = conditions: EAE MS model in mice; cited from earlier work
CRC cells = conditions: cited from earlier work
mice [4] = conditions: acute; cited from earlier work

For `O=C(O)c1ccn2c(n1)nc1ccc(Cl)cc12` [CMPD054], the “release of ATP by astrocytes” value (astrocytes) was “prevented” and the “release of ATP by microglial cells” value (microglial cells) was “prevented”.
For `CC1(C)[C@@H](OC(=O)CCC(=O)O)CC[C@]2(C)[C@H]3C(=O)C=C4[C@@H]5C[C@@](C)(C(=O)O)CC[C@]5(C)CC[C@@]4(C)[C@]3(C)CC[C@@H]12` [Carbenoxolone], the “inhibitory effect on PANX1” value (human PANX1 channels; at 50 μM) was “inhibitory effect”.
In the case of `CCCN(CCC)S(=O)(=O)c1ccc(C(=O)O)cc1` [Probenecid], the excitatory synaptic defects (Tg mice) is listed as “significantly reduced excitatory synaptic defects”, the ictal discharges [1] is listed as “blocked ictal discharges” and the withdrawal behaviours (mice [2]) is listed as “markedly reduced”. The “clinical symptoms (disease score)” value (mice [3]) was “reduced clinical symptoms”.
For `OC(c1cc(C(F)(F)F)nc2c(C(F)(F)F)cccc12)C1CCCCN1` (stereo not shown) [mefloquine], the ictal discharges [1] is given as “blocked ictal discharges”, the “growth arrest and apoptosis of CRC cells” value (CRC cells; CRC cells harboring phosphorylated p65, in culture and in mice) is given as “induced growth arrest and apoptosis” and the NF-κB inhibition (CRC cells; colorectal cancer cells) is given as “NF-κB inhibitor”. The withdrawal behaviours (mice [2]) was “markedly reduced”.
For `CC(=O)S[C@@H]1CC2=CC(=O)CC[C@]2(C)[C@H]2CC[C@@]3(C)[C@@H](CC[C@@]34CCC(=O)O4)[C@H]12` [Spirolactone, Spironolactone], the “inhibitory effect on PANX1” value (human PANX1 channels; at 3, 10, or 30 μM) is listed as “inhibitory effect” and the blood pressure (mice [4]) is listed as “acutely lowers blood pressure”.
In the case of `O=C(O)c1ccc2c(c1)c(C(=O)O)cn2CCCc1ccccc1` [CMPD043], the “release of ATP by astrocytes” value (astrocytes) is reported as “prevented” and the “release of ATP by microglial cells” value (microglial cells) is reported as “prevented”.
With `N[C@@H]1[C@H]2CN(c3nc4c(cc3F)c(=O)c(C(=O)O)cn4-c3cc(-c4nnn[nH]4)ccc3Cl)C[C@@H]12` [CMPD 053] the “release of ATP by astrocytes” value (astrocytes) was “prevented” and the “release of ATP by microglial cells” value (microglial cells) was “prevented”.
For `CC1CCCC(n2cnc3c(N4CCCC4C)ncnc32)O1` (stereo not shown) [CMPD019], the “release of ATP by astrocytes” value (astrocytes) was “prevented” and the “release of ATP by microglial cells” value (microglial cells) was “prevented”.

Reference: US20260146041A1, “PANNEXIN-1 MODULATORS AND METHODS OF TREATING DISORDERS IN WHICH PANNEXIN-1 IS IMPLICATED” (Pannex Therapeutics Inc., priority 2022, published 2026)
